The source of these data is patent US20220073532A1, “INHIBITORS OF CGAS ACTIVITY AS THERAPEUTIC AGENTS” (BELLBROOK LABS, LLC, priority 2019, published 2022).

The structures appear in SMILES notation. Like-named read-outs stand apart in the source and are kept apart here. Where only a bound is given, the exact number is not on record here.

For this assay, the target named is cGAS (Homo sapiens, UniProt Q8N884). The assay can be described thus: cGAS enzymatic assay (FP/TR-FRET detection of cGAMP). In kind it is biochemical. Set-up: The cGAS assay was used to screen 100,000 compounds with full-length human cGAS; 6xHis; made in house. The following applies: cGAS (30 nM). The protocol: Some exemplary compounds of the disclosure were tested for inhibition of cGAS (30 nM). The results are provided in Table 1 where “A” indicates an IC50 of less than 100 nM, “B” indicates an IC50 of greater than 100 nM and less than 500 nM, “C” indicates an IC50 of greater than 500 nM and less than 1 μM, “D” indicates an IC50 of greater than 1 μM and less than 10 μM, and “E” indicates an IC50 of greater than 10 μM.
cGAS, sequence (Q8N884 whole entry): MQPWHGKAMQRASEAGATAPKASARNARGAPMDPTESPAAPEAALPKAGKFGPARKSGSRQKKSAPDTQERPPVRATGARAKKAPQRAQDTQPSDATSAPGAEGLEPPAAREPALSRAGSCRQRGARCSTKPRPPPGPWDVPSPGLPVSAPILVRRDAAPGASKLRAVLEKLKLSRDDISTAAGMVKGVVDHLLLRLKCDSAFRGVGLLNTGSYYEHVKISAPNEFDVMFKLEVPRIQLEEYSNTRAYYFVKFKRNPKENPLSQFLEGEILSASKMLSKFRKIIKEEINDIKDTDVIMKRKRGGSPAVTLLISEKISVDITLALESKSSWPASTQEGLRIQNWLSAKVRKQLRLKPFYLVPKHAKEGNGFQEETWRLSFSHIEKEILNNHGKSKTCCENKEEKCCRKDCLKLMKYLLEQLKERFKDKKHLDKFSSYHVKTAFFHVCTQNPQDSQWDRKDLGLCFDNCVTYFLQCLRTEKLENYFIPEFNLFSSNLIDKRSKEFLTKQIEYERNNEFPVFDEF
A homogenous cGAS enzymatic assay was developed with fluorescence polarization (FP) and time-resolved Forster resonance energy transfer (TR-FRET) readouts (FIG. 2A-2D). The cGAS assay was used to screen 100,000 compounds with full-length human cGAS (FIG. 2E), resulting in the identification of the novel chemotype of the disclosure, two of which are further developed in a structure-driven hit-to-lead study (Table 3, below). The assay performance was robust, as indicated by respective Z and Z′ values of 0.59 and 0.63 in the screen; compounds with polarization values greater than three SDs from the mean were considered hits; a scatterplot from 10 plates (3,200 compounds) is shown in FIG. 2D.
Biochemical and biophysical analysis: Potency and MOA studies, including Mn^2+ sensitivity, are performed using the cGAS enzymatic assay. Dose response experiments are used to determine IC50 values under basal conditions (5 mM MgCl2, 100 μM ATP/GTP), and with the addition of physiological levels of Mn (0.2 mM) using human and mouse cGAS. Ligand optimization is driven by potency with the human enzyme; potency with mouse cGAS informs selection of an appropriate disease model for efficacy studies. Competition with ATP and GTP is assessed by comparing basal IC50 values to those in the presence of saturating ATP or GTP, and subsequently confirmed by measuring velocity vs. substrate at varying ATP or GTP levels. Inhibitor residence times (1/koff) are used as a key parameter for prioritizing compounds and driving SAR, because a longer residence time often results from an allosteric mechanism, and can also correlate with improved cellular activity. The cGAS enzymatic assay is used with the jump dilution method to measure residence times (inhibitor dissociation rates), as described for kinases using the very similar ADP assay. Biophysical methods, including SPR and TSA, are used as orthologous methods for residence time measurements and kd estimates.
For orientation: Time-resolved FRET reads energy transfer from a long-lived donor to a nearby acceptor.

[1] abbreviates: with Mn^2+, read-out: Inhibition cGAS + Mn^2+.

With `Cc1nc(N2C[C@@H](Nc3n[nH]cc3-c3ccccc3)CC2C(=O)O)c2oc3cc(F)ccc3c2n1` (stereo in doubt) [Compound 56, (2R,4S)-1-(7-fluoro-2-methylbenzofuro[3,2-d]pyrimidin-4-yl)-4-((4-phenyl-1H-pyrazol-3-yl)amino)pyrrolidine-2-carboxylic acid], the IC50 by setting is: under setting [1], 1 to 10 µM; (read-out: Inhibition cGAS) 0.5 to 1 µM.

On to `Cc1nc(NCC(=O)O)c2oc3ccccc3c2n1` [Compound 2, (2-methylbenzofuro[3,2-d]pyrimidin-4-yl)glycine], for which the IC50 reads like this: under setting [1], more than 10 µM; (read-out: Inhibition cGAS) 1 to 10 µM. For the compound `C[C@H](Nc1nc(-c2ccccc2)nc2c1oc1ccccc12)C(=O)O` [Compound 3, (2-phenylbenzofuro[3,2-d]pyrimidin-4-yl)-L-alanine], the IC50 under setting [1] was more than 10 µM and the IC50 (read-out: Inhibition cGAS) fell in the range of 1 to 10 µM. On to `O=C(O)[C@@H]1CCCN1c1ncnc2c1oc1ccccc12` [Compound 4, benzofuro[3,2-d]pyrimidin-4-yl-L-proline], for which the IC50 runs as follows: under setting [1], more than 10 µM; (read-out: Inhibition cGAS) 1 to 10 µM. The matching figures for `O=C(O)CNc1nc(-c2ccccc2)nc2c1oc1ccccc12` [Compound 5, (2-phenylbenzofuro[3,2-d]pyrimidin-4-yl)glycine]: more than 10 µM and 1 to 10 µM. In the case of `O=C(O)C1CCCN(c2ncnc3c2oc2ccccc23)C1` (centres unmarked) [Compound 6, 1-(benzofuro[3,2-d]pyrimidin-4-yl)piperidine-3-carboxylic acid], the IC50 runs as follows: under setting [1], more than 10 µM; (read-out: Inhibition cGAS) more than 10 µM. As for `CCc1nc(N2CCC[C@H]2C(=O)O)c2oc3ccccc3c2n1` [Compound 7, (2-ethylbenzofuro[3,2-d]pyrimidin-4-yl)-L-proline], the IC50 is 1 to 10 µM under setting [1] and 1 to 10 µM (read-out: Inhibition cGAS).

On to `O=C(O)[C@@H]1CCCN1c1nc(C2CC2)nc2c1oc1ccccc12` [Compound 8, (2-cyclopropylbenzofuro[3,2-d]pyrimidin-4-yl)-L-proline], for which the IC50 under setting [1] was more than 10 µM and the IC50 (read-out: Inhibition cGAS) lay within 1 to 10 µM. The matching figures for `CC(C)c1nc(N2CCC[C@H]2C(=O)O)c2oc3ccccc3c2n1` [Compound 9, (2-isopropylbenzofuro[3,2-d]pyrimidin-4-yl)-L-proline]: more than 10 µM and 1 to 10 µM. Take `O=C(O)[C@@H]1CCCN1c1nc(C2CCCCC2)nc2c1oc1ccccc12` [Compound 10, (2-cyclohexylbenzofuro[3,2-d]pyrimidin-4-yl)-L-proline]: the IC50 was more than 10 µM under setting [1] and more than 10 µM (read-out: Inhibition cGAS). For the compound `O=C(O)[C@@H]1CCCN1c1nc(C2CCC2)nc2c1oc1ccccc12` [Compound 11, (2-cyclobutylbenzofuro[3,2-d]pyrimidin-4-yl)-L-proline], the IC50 is more than 10 µM under setting [1] and 1 to 10 µM (read-out: Inhibition cGAS). The matching figures for `O=C(O)[C@@H]1CCCN1c1nc(C2CCCC2)nc2c1oc1ccccc12` [Compound 12, (2-cyclopentylbenzofuro[3,2-d]pyrimidin-4-yl)-L-proline]: more than 10 µM and more than 10 µM. Turning to `O=C(O)[C@@H]1CCCN1c1nc(-c2ccccc2)nc2c1oc1ccccc12` [Compound 13, (2-phenylbenzofuro[3,2-d]pyrimidin-4-yl)-L-proline], the IC50 by setting is: under setting [1], more than 10 µM; (read-out: Inhibition cGAS) more than 10 µM. Turning to `CCc1nc(N2CCC[C@H]2C(=O)NS(=O)(=O)N(C)C)c2oc3ccccc3c2n1` [Compound 14, (S)-N-(N,N-dimethylsulfamoyl)-1-(2-ethylbenzofuro[3,2-d]pyrimidin-4-yl)pyrrolidine-2-carboxamide], the IC50 runs as follows: under setting [1], more than 10 µM; (read-out: Inhibition cGAS) more than 10 µM. With `CCc1nc(N(C)CC(=O)O)c2oc3ccccc3c2n1` [Compound 16, N-(2-ethylbenzofuro[3,2-d]pyrimidin-4-yl)-N-methylglycine], the IC50 is 1 to 10 µM under setting [1] and 1 to 10 µM (read-out: Inhibition cGAS). `CCc1nc(N(C)[C@@H](C)C(=O)O)c2oc3ccccc3c2n1` [Compound 17, N-(2-ethylbenzofuro[3,2-d]pyrimidin-4-yl)-N-methyl-L-alanine]: the IC50 is more than 10 µM under setting [1] and 1 to 10 µM (read-out: Inhibition cGAS).

As to `O=C(O)[C@@H]1CCCN1c1nc(-c2ccncc2)nc2c1oc1ccccc12` [Compound 18, (2-(pyridin-4-yl)benzofuro[3,2-d]pyrimidin-4-yl)-L-proline], the IC50 was more than 10 µM under setting [1] and more than 10 µM (read-out: Inhibition cGAS).

`CCc1nc(N2CC[C@H]2C(=O)O)c2oc3ccccc3c2n1` [Compound 19, (S)-1-(2-ethylbenzofuro[3,2-d]pyrimidin-4-yl)azetidine-2-carboxylic acid]: the IC50 under setting [1] was 1 to 10 µM and the IC50 (read-out: Inhibition cGAS) lay in the range of 1 to 10 µM. Take `COc1nc(N2CCC[C@H]2C(=O)O)c2oc3ccccc3c2n1` [Compound 20, (2-methoxybenzofuro[3,2-d]pyrimidin-4-yl)-L-proline]: the IC50 by setting is: under setting [1], 1 to 10 µM; (read-out: Inhibition cGAS) 0.5 to 1 µM.

`C[C@H]1C[C@@H](C(=O)O)N(c2nc(-c3ccccc3)nc3c2oc2ccccc23)C1` [Compound 21, (2S,4S)-4-methyl-1-(2-phenylbenzofuro[3,2-d]pyrimidin-4-yl)pyrrolidine-2-carboxylic acid]: the IC50 was more than 10 µM under setting [1] and 1 to 10 µM (read-out: Inhibition cGAS). In the case of `N#Cc1nc(N2CCC[C@H]2C(=O)O)c2oc3ccccc3c2n1` [Compound 22, (2-cyanobenzofuro[3,2-d]pyrimidin-4-yl)-L-proline], the IC50 by setting is: under setting [1], 1 to 10 µM; (read-out: Inhibition cGAS) 1 to 10 µM. For `CO[C@H]1C[C@@H](C(=O)O)N(c2nc(C)nc3c2oc2ccccc23)C1` [Compound 23, (2S,4S)-4-methoxy-1-(2-methylbenzofuro[3,2-d]pyrimidin-4-yl)pyrrolidine-2-carboxylic acid], the IC50 is, setting by setting: under setting [1], more than 10 µM; (read-out: Inhibition cGAS) 1 to 10 µM. As to `Cc1nc(N[C@@H](CCC(=O)O)C(=O)O)c2oc3ccccc3c2n1` [Compound 24, (2-methylbenzofuro[3,2-d]pyrimidin-4-yl)glutamic acid], the IC50 is, setting by setting: under setting [1], more than 10 µM; (read-out: Inhibition cGAS) 1 to 10 µM. As to `Cc1nc(N2C[C@@H](Cc3nn[nH]n3)C[C@H]2C(=O)O)c2oc3ccccc3c2n1` [Compound 25, (2S,4R)-4-((1H-tetrazol-5-yl)methyl)-1-(2-methylbenzofuro[3,2-d]pyrimidin-4-yl)pyrrolidine-2-carboxylic acid], for the setting “read-out: Inhibition cGAS”, the IC50 was less than 0.1 µM. With `Cc1nc(N2C[C@@H](Nc3cc[nH]n3)C[C@H]2C(=O)O)c2oc3ccccc3c2n1` [Compound 26, (2S,4S)-4-((1H-pyrazol-3-yl)amino)-1-(2-methylbenzofuro[3,2-d]pyrimidin-4-yl)pyrrolidine-2-carboxylic acid], for the setting “read-out: Inhibition cGAS”, the IC50 lay within 0.1 to 0.5 µM. `Cc1nc(N2C[C@@H](Nc3n[nH]cc3C)C[C@H]2C(=O)O)c2oc3ccccc3c2n1` [Compound 27, (2S,4S)-4-((4-methyl-1H-pyrazol-3-yl)amino)-1-(2-methylbenzofuro[3,2-d]pyrimidin-4-yl)pyrrolidine-2-carboxylic acid]: the IC50 (read-out: Inhibition cGAS) was in the range of 0.1 to 0.5 µM. Take `Cc1nc(N2C[C@@H](NC(=O)C(C)(C)c3ccncc3)C[C@H]2C(=O)O)c2oc3ccccc3c2n1` [Compound 29, (2S,4S)-4-(2-methyl-2-(pyridin-4-yl)propanamido)-1-(2-methylbenzofuro[3,2-d]pyrimidin-4-yl)pyrrolidine-2-carboxylic acid]: under “read-out: Inhibition cGAS”, the IC50 lay within 0.1 to 0.5 µM. In the case of `Cc1nc(N2C[C@@H](NC(=O)Cc3cc[nH]n3)C[C@H]2C(=O)O)c2oc3ccccc3c2n1` [Compound 31, (2S,4S)-4-(2-(1H-pyrazol-3-yl)acetamido)-1-(2-methylbenzofuro[3,2-d]pyrimidin-4-yl)pyrrolidine-2-carboxylic acid], the “Inhibition cGAS” value was “B, D”. Turning to `Cc1nc(N2C[C@@H](NC(=O)Cc3cn[nH]c3)C[C@H]2C(=O)O)c2oc3ccccc3c2n1` [Compound 32, (2S,4S)-4-(2-(1H-pyrazol-4-yl)acetamido)-1-(2-methylbenzofuro[3,2-d]pyrimidin-4-yl)pyrrolidine-2-carboxylic acid], the IC50 (read-out: Inhibition cGAS) was in the range of 0.5 to 1 µM. As to `Cc1nc(N2C[C@@H](NC(=O)Cc3ccc(N)nc3)C[C@H]2C(=O)O)c2oc3ccccc3c2n1` [Compound 33, (2S,4S)-4-(2-(6-aminopyridin-3-yl)acetamido)-1-(2-methylbenzofuro[3,2-d]pyrimidin-4-yl)pyrrolidine-2-carboxylic acid], the IC50 (read-out: Inhibition cGAS) was 0.1 to 0.5 µM.
